From ChEMBL document CHEMBL1833972 (Bioorg Med Chem Lett, 2011)
≈ marks a conversion by molar mass, not a printed value.

What was measured:
[1] = Solubility of the compound; assay type: physicochemical
in vitro [2] = details: rat, cytosol
in vitro [3] = details: human, liver microsomes
[4] = Lipophilicity, log D of the compound; assay type: physicochemical; details: octanol/water
in vitro [5] = details: rat, liver microsomes
[6] = Thermodynamic solubility of compound at physiological pH; assay type: physicochemical; details: read-out: Therm_solubility

| SMILES | solubility [1] | half-life (in vitro [2]) [h] | microsomal CLint (in vitro [3]) [µL/min/mg] | logD [4] | microsomal CLint (in vitro [5]) [µL/min/mg] | solubility thermodynamic [6] [µg/mL] |
| --- | --- | --- | --- | --- | --- | --- |
| Nc1nc(C(F)(F)F)cc2c1[nH]c(=O)n2Cc1ccnc(OCCN2CCCC2)c1 | soluble | – | – | – | – | – |
| Nc1nc(C(F)(F)F)cc2c1[nH]c(=O)n2Cc1ccc(NCCO)nc1 | – | 3.27 | < 8 | 1.6 | < 8.5 | – |
| Nc1nc(C(F)(F)F)cc2c1[nH]c(=O)n2Cc1cccnc1OCCN1CCCC1 | soluble | – | – | – | – | – |
| Nc1nc(C(F)(F)F)cc2c1[nH]c(=O)n2Cc1cccnc1N1CCC[C@H]1CN1CCCC1 | soluble | – | – | – | – | – |
| COCCNc1ccc(Cn2c(=O)[nH]c3c(N)nc(C(F)(F)F)cc32)cn1 | soluble | – | – | – | – | – |
| CCN(CC)CCN(C)c1ccc(Cn2c(=O)[nH]c3c(N)nc(C(F)(F)F)cc32)cn1 | – | – | 24 | 1.3 | 11 | – |
| Nc1nc(C(F)(F)F)cc2c1[nH]c(=O)n2Cc1ccc(NCc2ccccc2)nc1 | – | 4.17 | < 8 | 1.8 | 16 | – |
| CN(C)CCNc1ccc(Cn2c(=O)[nH]c3c(N)nc(C(F)(F)F)cc32)cn1 | – | 6.17 | 9 | 0.7 | 16 | 483 (≈ 1220 µM) |
| COCCCN1CCN(c2ccc(Cn3c(=O)[nH]c4c(N)nc(C(F)(F)F)cc43)cn2)CC1 | soluble | – | – | – | – | – |
| Nc1nc(C(F)(F)F)cc2c1[nH]c(=O)n2Cc1ccnc(N2CCC[C@H]2CN2CCCC2)c1 | soluble | – | – | – | – | – |
| COCCCN1CCN(c2ncccc2Cn2c(=O)[nH]c3c(N)nc(C(F)(F)F)cc32)CC1 | soluble | – | – | – | – | – |
| Nc1nc(C(F)(F)F)cc2c1[nH]c(=O)n2Cc1ccc(OCCN2CCCC2)nc1 | soluble | – | 10 | 1.2 | 9 | – |
| CN(C)CCN1CCN(c2ccc(Cn3c(=O)[nH]c4c(N)nc(C(F)(F)F)cc43)cn2)CC1 | – | – | < 8 | 0.9 | < 8.5 | – |
| CN1CCN(CC2CCCN2c2ncccc2Cn2c(=O)[nH]c3c(N)nc(C(F)(F)F)cc32)CC1 (stereo unspecified) | soluble | – | – | – | – | – |
| COCCNc1ncccc1Cn1c(=O)[nH]c2c(N)nc(C(F)(F)F)cc21 | soluble | – | – | – | – | – |
| CN(CCN1CCCCC1)c1ccc(Cn2c(=O)[nH]c3c(N)nc(C(F)(F)F)cc32)cn1 | – | – | 25 | 1.8 | 13 | – |
| COCCN1CCN(c2ccc(Cn3c(=O)[nH]c4c(N)nc(C(F)(F)F)cc43)cn2)CC1 | soluble | – | 17 | 2.3 | 9 | – |
| CN1CCN(CC2CCCN2c2ccc(Cn3c(=O)[nH]c4c(N)nc(C(F)(F)F)cc43)cn2)CC1 (stereo unspecified) | soluble | – | – | – | – | – |
| CN1CCN(CCN(C)c2ccc(Cn3c(=O)[nH]c4c(N)nc(C(F)(F)F)cc43)cn2)CC1 | – | – | 25 | 1.5 | 15 | – |
| CN1CCN(CC2CCCN2c2cc(Cn3c(=O)[nH]c4c(N)nc(C(F)(F)F)cc43)ccn2)CC1 (stereo unspecified) | soluble | – | – | – | – | – |
| Nc1nc(C(F)(F)F)cc2c1[nH]c(=O)n2Cc1ccc(N2CCC[C@H]2CN2CCCC2)nc1 | soluble | – | – | – | – | – |
| Nc1nc(C(F)(F)F)cc2c1[nH]c(=O)n2Cc1ccc(NCCN2CCCC2)nc1 | – | – | 8.5 | 0.8 | < 8.5 | – |
| COCCN1CCN(c2ncccc2Cn2c(=O)[nH]c3c(N)nc(C(F)(F)F)cc32)CC1 | soluble | – | – | – | – | – |
| CN(C)CCOc1ccc(Cn2c(=O)[nH]c3c(N)nc(C(F)(F)F)cc32)cn1 | – | – | 22 | 1.2 | 24 | – |
| CN(C)CCN(C)c1ccc(Cn2c(=O)[nH]c3c(N)nc(C(F)(F)F)cc32)cn1 | – | – | 16 | 1.2 | 11 | – |
| COCCN1CCN(c2cc(Cn3c(=O)[nH]c4c(N)nc(C(F)(F)F)cc43)ccn2)CC1 | soluble | – | – | – | – | – |
| Nc1nc(C(F)(F)F)cc2c1[nH]c(=O)n2Cc1ccc(NCCN2CCCCC2)nc1 | – | – | 13 | 1.3 | 16 | – |
| COCCNc1cc(Cn2c(=O)[nH]c3c(N)nc(C(F)(F)F)cc32)ccn1 | soluble | – | – | – | – | – |
| COCCCN1CCN(c2cc(Cn3c(=O)[nH]c4c(N)nc(C(F)(F)F)cc43)ccn2)CC1 | soluble | – | – | – | – | – |
